Assays:
human orexin-1 receptor = target: T1, human orexin-1 receptor (Homo sapiens, UniProt O43613); assay: Intracellular calcium measurements (FLIPR), orexin-A induced, CHO cells expressing human orexin-1 receptor; assay type: cell-based; conditions: 10 nM orexin-A as agonist, read-out: IC50 OX1
T1 construct: expressed in transfected cells; host or cells: CHO cells (G418 selection)
T1 sequence (O43613 1-425): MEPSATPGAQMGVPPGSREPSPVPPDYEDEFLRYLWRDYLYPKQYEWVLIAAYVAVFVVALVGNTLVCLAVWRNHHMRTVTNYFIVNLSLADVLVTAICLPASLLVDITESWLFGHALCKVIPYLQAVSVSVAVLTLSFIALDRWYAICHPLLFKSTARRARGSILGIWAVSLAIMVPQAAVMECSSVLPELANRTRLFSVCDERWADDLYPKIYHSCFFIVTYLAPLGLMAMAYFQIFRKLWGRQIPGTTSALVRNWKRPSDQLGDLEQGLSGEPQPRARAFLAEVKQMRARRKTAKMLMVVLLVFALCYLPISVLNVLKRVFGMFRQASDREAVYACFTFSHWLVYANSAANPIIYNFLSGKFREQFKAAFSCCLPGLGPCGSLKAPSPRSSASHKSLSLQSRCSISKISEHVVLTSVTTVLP
Procedure: (§1) The orexin receptor antagonistic activity of the compounds of formula (I) and/or (Ia) is determined in accordance with the following experimental method.
(§2) Intracellular Calcium Measurements:
(§3) Chinese hamster ovary (CHO) cells expressing the human orexin-1 receptor and the human orexin-2 receptor, respectively, are grown in culture medium (Ham F-12 with L-Glutamine) containing 300 μg/ml G418, 100 U/ml penicillin, 100 μg/ml streptomycin and 10% inactivated fetal calf serum (FCS). The cells are seeded at 80'000 cells/well into 96-well black clear bottom sterile plates (Costar) which have been precoated with 1% gelatine in Hanks' Balanced Salt Solution (HBSS). All reagents are from Gibco BRL. The seeded plates are incubated overnight at 37° C. in 5% CO2.
(§4) Human orexin-A as an agonist is prepared as 1 mM stock solution in methanol:water (1:1), diluted in HBSS containing 0.1% bovine serum albumin (BSA) and 2 mM HEPES for use in the assay at a final concentration of 10 nM.
(§5) Antagonists are prepared as 10 mM stock solution in DMSO, then diluted in 96-well plates, first in DMSO, then in HBSS containing 0.1% bovine serum albumin (BSA) and 2 mM HEPES.
(§6) On the day of the assay, 100 μl of loading medium (HBSS containing 1% FCS, 2 mM HEPES, 5 mM probenecid (Sigma) and 3 μM of the fluorescent calcium indicator fluo-3 AM (1 mM stock solution in DMSO with 10% pluronic acid) (Molecular Probes) is added to each well.
(§7) The 96-well plates are incubated for 60 min at 37° C. in 5% CO2. The loading solution is then aspirated and cells are washed 3 times with 200 μl HBSS containing 2.5 mM probenecid, 0.1% BSA, 2 mM HEPES. 100 μl of that same buffer is left in each well.
(§8) Within the Fluorescent Imaging Plate Reader (FLIPR, Molecular Devices), antagonists are added to the plate in a volume of 50 μl, incubated for 20 min and finally 100 μl of agonist is added. Fluorescence is measured for each well at 1 second intervals, and the height of each fluorescence peak is compared to the height of the fluorescence peak induced by 10 nM orexin-A with buffer in place of antagonist. For each antagonist, IC50 value (the concentration of compound needed to inhibit 50% of the agonistic response) is determined. Antagonistic activities of compounds are in the nanomolar range with respect to OX1 and OX2 receptors.

human orexin-2 receptor = target: T2, human orexin-2 receptor (Homo sapiens, UniProt O43614); assay: Intracellular calcium measurements (FLIPR), orexin-A induced, CHO cells expressing human orexin-2 receptor; assay type: cell-based; conditions: 10 nM orexin-A as agonist, read-out: IC50 OX2
T2 construct: expressed in transfected cells; host or cells: CHO cells (G418 selection)
T2 sequence (O43614 1-444): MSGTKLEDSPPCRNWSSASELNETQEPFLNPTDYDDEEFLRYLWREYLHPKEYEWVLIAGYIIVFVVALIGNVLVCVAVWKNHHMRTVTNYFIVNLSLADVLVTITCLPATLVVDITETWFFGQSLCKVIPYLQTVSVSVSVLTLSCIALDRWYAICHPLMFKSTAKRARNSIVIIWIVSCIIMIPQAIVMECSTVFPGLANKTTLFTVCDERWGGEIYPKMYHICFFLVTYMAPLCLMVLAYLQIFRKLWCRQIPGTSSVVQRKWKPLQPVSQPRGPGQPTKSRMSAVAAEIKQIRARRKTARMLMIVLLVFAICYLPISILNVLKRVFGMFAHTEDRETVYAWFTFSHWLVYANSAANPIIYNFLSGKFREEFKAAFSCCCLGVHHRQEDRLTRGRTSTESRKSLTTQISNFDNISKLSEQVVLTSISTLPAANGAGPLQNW
Procedure: as §1, §2, §3, §4, §5, §6, §7, §8

SMILES | IC50 (human orexin-1 receptor) [nM] | IC50 (human orexin-2 receptor) [nM]
CCn1nc(C)c2c1CCN([C@@H](C(=O)NC)c1ccccc1)[C@H]2CCc1ccc(C)cc1 (stereo in doubt) [Example 6, 2-[1-Ethyl-3-methyl-4-(2-p-tolyl-ethyl)-1,4,6,7-tetrahydro-pyrazolo[4,3-c]pyridin-5-yl]-N-methyl-2-phenyl-acetamide] | 75 | 4
CCn1nc(C)c2c1CCN([C@@H](C(=O)NC)c1ccccc1)[C@H]2CCc1ccc(C(F)(F)F)cc1F [Example 31, 2-{1-Ethyl-4-[2-(2-fluoro-4-trifluoromethyl-phenyl)-ethyl]-3-methyl-1,4,6,7-tetrahydro-pyrazolo[4,3-c]pyridin-5-yl}-N-methyl-2-phenyl-acetamide] | 52 | 8
CCn1nc(C)c2c1CCN([C@@H](C(=O)NC)c1ccccc1)[C@H]2CCc1ccc(C)c(F)c1 [Example 32, 2-{1-Ethyl-4-[2-(3-fluoro-4-methyl-phenyl)-ethyl]-3-methyl-1,4,6,7-tetrahydro-pyrazolo[4,3-c]pyridin-5-yl}-N-methyl-2-phenyl-acetamide] | 49 | 2

The remaining molecules from weak to strong by IC50 (human orexin-1 receptor), led by results:

IC50 (human orexin-1 receptor) [nM] | IC50 (human orexin-2 receptor) [nM] | SMILES
131 | 7 | CCn1nc(C)c2c1CCN([C@@H](C(=O)NC)c1ccccc1)[C@H]2CCc1ccc(C)cc1C [Example 35, 2-{4-[2-(2,4-Dimethyl-phenyl)-ethyl]-1-ethyl-3-methyl-1,4,6,7-tetrahydro-pyrazolo[4,3-c]pyridin-5-yl}-N-methyl-2-phenyl-acetamide]
49 | 3 | CCn1nc(C)c2c1CCN(C(C(=O)NC)c1ccccc1)C2CCc1cc(C(F)(F)F)ccc1F (stereo not drawn) [Example 3, 2-{1-Ethyl-4-[2-(2-fluoro-5-trifluoromethyl-phenyl)-ethyl]-3-methyl-1,4,6,7-tetrahydro-pyrazolo[4,3-c]pyridin-5-yl}-N-methyl-2-phenyl-acetamide]
20 | 4 | CCn1nc(C)c2c1CCN([C@@H](C(=O)NC)c1ccccc1)[C@H]2CCc1ccc(C)c(C)c1 [Example 33, 2-{4-[2-(3,4-Dimethyl-phenyl)-ethyl]-1-ethyl-3-methyl-1,4,6,7-tetrahydro-pyrazolo[4,3-c]pyridin-5-yl}-N-methyl-2-phenyl-acetamide]
